Experiment [1] deals with Lipopolysaccharide (LPS). In words: Binding affinity to Pseudomonas aeruginosa lipopolysaccharide assessed as normalized peak area of proton resonances in region of 1.5 to 0.5 ppm by […] relative to untreated control.
Experiment [2] relates to Lipopolysaccharide (LPS). Nature of the experiment: Binding affinity to SUV consisting Pseudomonas aeruginosa lipopolysaccharide by CD spectroscopy.
For experiment [3], the system named is Lipopolysaccharide (LPS). Nature of the experiment: Binding affinity to Pseudomonas aeruginosa lipopolysaccharide incorporated into 59% POPC/20% POPE/21% POPG by Far-UV circular dichroism spectroscopy. On the technique in general: CD spectra are sensitive to the conformation of chiral molecules.
Experiment [4] concerns Lipopolysaccharide (LPS). Nature of the experiment: Binding affinity to Pseudomonas aeruginosa lipopolysaccharide at 0.1 mg by [1H] NMR spectroscopy.
For experiment [5], the system named is Lipopolysaccharide (LPS). Nature of the experiment: Binding affinity to Klebsiella pneumoniae lipopolysaccharide incorporated into 75% POPC/20% POPE/5% POPG liposomes by Far-UV circular dichroism spectroscopy. The settings on record: Liposome.
In experiment [6] the test system is Lipopolysaccharide (LPS). Nature of the experiment: Binding affinity to Klebsiella pneumoniae lipopolysaccharide assessed as normalized peak area of proton resonances in region of 1.5 to 0.5 ppm by […] relative to untreated control.
The next experiment has as its system Pseudomonas aeruginosa. Nature of the experiment: Antimicrobial activity against Pseudomonas aeruginosa PAO1. The experiment is classed as functional. Conditions: for MIC: Pseudomonas aeruginosa, PAO1.
The subject of experiment [7] is Lipopolysaccharide (LPS). In words: Binding affinity to Klebsiella pneumoniae lipopolysaccharide incorporated into phospholipid 75% POPC/20% POPE/5% POPG liposomes by Far-UV circular dichroism spectroscopy.
Experiment [8] has as its system Lipopolysaccharide (LPS). Nature of the experiment: Binding affinity to Pseudomonas aeruginosa lipopolysaccharide incorporated into 80% POPC/20% POPG by Far-UV circular dichroism spectroscopy.
Experiment [9] deals with Lipopolysaccharide (LPS). In words: Binding affinity to Pseudomonas aeruginosa lipopolysaccharide incorporated into 59% POPC/20% POPE/21% POPG liposomes by Far-UV circular dichroism spectroscopy. Conditions: Liposome.
Experiment [10] has as its system Lipopolysaccharide (LPS). Nature of the experiment: Binding affinity to Klebsiella pneumoniae lipopolysaccharide at 0.1 mg by [1H] NMR spectroscopy.
The subject of experiment [11] is Lipopolysaccharide (LPS). Nature of the experiment: Binding affinity to Klebsiella pneumoniae lipopolysaccharide incorporated 75% POPC/20% POPE/5% POPG liposome by Far-UV circular dichroism spectroscopy.
The test system of experiment [12] is Lipopolysaccharide (LPS). In words: Binding affinity to SUV consisting Klebsiella pneumoniae lipopolysaccharide by CD spectroscopy.
Another experiment deals with Klebsiella pneumoniae. Nature of the experiment: Antimicrobial activity against Klebsiella pneumoniae BAMC 07-18. It counts as functional. The settings on record: for MIC: Klebsiella pneumoniae, BAMC 07-18.

Molecules are shown by their SMILES. In brackets after ≈: the same amount, converted by molar mass. Activity calls are given as the source filed them. No cut-off for these calls is given here. *1 amine or outer side, *2 acyl side, *3 side chain or, on linkers, in order; H or OH if unused. Where a SMILES comes first, the peptide text is derived from it. [ ]: non-standard residue; d: D form. ξ: configuration not given here. Phe(4-NO2) = N[C@@H](Cc1ccc([N+](=O)[O-])cc1)C(=O)O; Pro(3ξ,4ξ-(CH2)4) = O=C(O)[C@H]1NCC2CCCCC21; X1 = O=C([C@H]1C2CCCCC2CN1[*:1])[*:2]; Tic = O=C(O)[C@@H]1Cc2ccccc2CN1; dTic = O=C(O)[C@H]1Cc2ccccc2CN1; dOrn = NCCC[C@@H](N)C(=O)O; Dab = NCC[C@H](N)C(=O)O; βAla = NCCC(=O)O Some results are limits rather than exact numbers.

As a reminder, the MBC is the lowest tested concentration that kills the bacteria rather than only halting them. A word on the MIC: it is the least concentration at which growth counts as inhibited. The low end stands for a more susceptible organism, the high end for a less susceptible organism. As for `CC(=O)NCC(=O)N[C@@H](Cc1ccccc1)C(=O)N1Cc2ccccc2C[C@H]1C(=O)N1CC2CCCCC2[C@H]1C(=O)NCC(=O)N[C@@H](CCCCN)C(=O)N1Cc2ccccc2C[C@H]1C(=O)N1CC2CCCCC2[C@H]1C(=O)NCC(=O)N[C@@H](Cc1ccccc1)C(=O)N1Cc2ccccc2C[C@H]1C(=O)N1CC2CCCCC2[C@H]1C(=O)NCC(=O)N[C@@H](CCCCN)C(=O)N1Cc2ccccc2C[C@H]1C(=O)N[C@@H](CCCCN)C(=O)N[C@@H](CCCCN)C(=O)N[C@@H](CCCCN)C(=O)N[C@@H](CCCCN)C(N)=O` (stereo partly drawn) (Ac-GF[Tic][Pro(3ξ,4ξ-(CH2)4)]GK[Tic][Pro(3ξ,4ξ-(CH2)4)]GF[Tic][Pro(3ξ,4ξ-(CH2)4)]GK[Tic]KKKK-NH2), the figures for the Activity with Lipopolysaccharide (LPS) [1] and with Lipopolysaccharide (LPS) [6] were 33% and 81%, respectively. The outcome in the experiment on Lipopolysaccharide (LPS) [2], in the experiment on Lipopolysaccharide (LPS) [3], in the experiment on Lipopolysaccharide (LPS) [4], in the experiment with Lipopolysaccharide (LPS) [5], in the experiment with Lipopolysaccharide (LPS) [7] and with Lipopolysaccharide (LPS) [8] was Active. Besides, the result with Lipopolysaccharide (LPS) [9], with Lipopolysaccharide (LPS) [10], in the experiment on Lipopolysaccharide (LPS) [11] and with Lipopolysaccharide (LPS) [12] was Active. Also, the MBC against Pseudomonas aeruginosa and against Klebsiella pneumoniae was 40 µM (≈ 97.6 µg/mL) throughout. Also, the MIC against Pseudomonas aeruginosa and against Klebsiella pneumoniae was 40 µM (≈ 97.6 µg/mL) throughout.

Take `CC(=O)NCC(=O)N[C@@H](Cc1ccccc1)C(=O)N1Cc2ccccc2C[C@H]1C(=O)N1CC2CCCCC2[C@H]1C(=O)NCC(=O)N[C@@H](CCCNC(=N)N)C(=O)N1Cc2ccccc2C[C@H]1C(=O)N1CC2CCCCC2[C@H]1C(=O)NCC(=O)N[C@@H](Cc1ccccc1)C(=O)N1Cc2ccccc2C[C@H]1C(=O)N1CC2CCCCC2[C@H]1C(=O)NCC(=O)N[C@@H](CCCNC(=N)N)C(=O)N1Cc2ccccc2C[C@H]1C(=O)N[C@@H](CCCNC(=N)N)C(=O)N[C@@H](CCCNC(=N)N)C(=O)N[C@@H](CCCNC(=N)N)C(=O)N[C@@H](CCCNC(=N)N)C(N)=O` (stereo partly drawn) (Ac-GF[Tic][Pro(3ξ,4ξ-(CH2)4)]GR[Tic][Pro(3ξ,4ξ-(CH2)4)]GF[Tic][Pro(3ξ,4ξ-(CH2)4)]GR[Tic]RRRR-NH2): the Activity stood at 39% with Lipopolysaccharide (LPS) [1] and 81% in the experiment with Lipopolysaccharide (LPS) [6]. The outcome with Lipopolysaccharide (LPS) [2], in the experiment on Lipopolysaccharide (LPS) [3], in the experiment with Lipopolysaccharide (LPS) [4], in the experiment on Lipopolysaccharide (LPS) [5], in the experiment with Lipopolysaccharide (LPS) [7] and in the experiment on Lipopolysaccharide (LPS) [8] was Active. The result in the experiment with Lipopolysaccharide (LPS) [9], in the experiment on Lipopolysaccharide (LPS) [10], in the experiment with Lipopolysaccharide (LPS) [11] and in the experiment on Lipopolysaccharide (LPS) [12] was Active. Besides, the MBC with Pseudomonas aeruginosa was > 100 µM; in the experiment on Klebsiella pneumoniae, 38.4 µM (≈ 100 µg/mL). Besides, the MIC in the experiment with Pseudomonas aeruginosa stood at 38.4 µM (≈ 100 µg/mL); against Klebsiella pneumoniae, 19.1 µM (≈ 49.8 µg/mL).

Turning to `CC(=O)NCC(=O)N[C@@H](Cc1ccccc1)C(=O)N1Cc2ccccc2C[C@H]1C(=O)N1CC2CCCCC2[C@H]1C(=O)NCC(=O)N[C@@H](CCN)C(=O)N1Cc2ccccc2C[C@H]1C(=O)N1CC2CCCCC2[C@H]1C(=O)NCC(=O)N[C@@H](Cc1ccccc1)C(=O)N1Cc2ccccc2C[C@H]1C(=O)N1CC2CCCCC2[C@H]1C(=O)NCC(=O)N[C@@H](CCN)C(=O)N1Cc2ccccc2C[C@H]1C(=O)N[C@@H](CCN)C(=O)N[C@@H](CCN)C(=O)N[C@@H](CCN)C(=O)N[C@@H](CCN)C(N)=O` (stereo partly drawn) (Ac-GF[Tic][Pro(3ξ,4ξ-(CH2)4)]G[Dab][Tic][Pro(3ξ,4ξ-(CH2)4)]GF[Tic][Pro(3ξ,4ξ-(CH2)4)]G[Dab][Tic][Dab][Dab][Dab][Dab]-NH2), the Activity in the experiment on Lipopolysaccharide (LPS) [1] was 29%; in the experiment with Lipopolysaccharide (LPS) [6], 89%. Besides, the outcome in the experiment with Lipopolysaccharide (LPS) [2], in the experiment on Lipopolysaccharide (LPS) [3], in the experiment with Lipopolysaccharide (LPS) [4], in the experiment on Lipopolysaccharide (LPS) [5], in the experiment on Lipopolysaccharide (LPS) [7] and in the experiment on Lipopolysaccharide (LPS) [8] was Active. Further, the result in the experiment with Lipopolysaccharide (LPS) [9], in the experiment on Lipopolysaccharide (LPS) [10], in the experiment with Lipopolysaccharide (LPS) [11] and in the experiment with Lipopolysaccharide (LPS) [12] was Active. For the same compound, the MBC worked out at 11 µM (≈ 25 µg/mL) against Pseudomonas aeruginosa and 5.5 µM (≈ 12.5 µg/mL) with Klebsiella pneumoniae. Further, the minimal inhibitory concentration (MIC) with Pseudomonas aeruginosa and with Klebsiella pneumoniae was 5.5 µM (≈ 12.5 µg/mL) in each case.

On to `CC(=O)NCC(=O)N[C@@H](Cc1ccccc1)C(=O)N1Cc2ccccc2C[C@H]1C(=O)N1CC2CCCCC2[C@@H]1C(=O)NCC(=O)N[C@H](CCCN)C(=O)N1Cc2ccccc2C[C@@H]1C(=O)N1CC2CCCCC2[C@H]1C(=O)NCC(=O)N[C@H](Cc1ccccc1)C(=O)N1Cc2ccccc2C[C@@H]1C(=O)N1CC2CCCCC2[C@@H]1C(=O)NCC(=O)N[C@H](CCCN)C(=O)N1Cc2ccccc2C[C@@H]1C(=O)N[C@H](CCCN)C(=O)N[C@H](CCCN)C(=O)N[C@H](CCCN)C(=O)N[C@H](CCCN)C(N)=O` (stereo partly drawn) (Ac-GF[Tic][X1]G[dOrn][dTic][Pro(3ξ,4ξ-(CH2)4)]G[dF][dTic][X1]G[dOrn][dTic][dOrn][dOrn][dOrn][dOrn]-NH2), for which the Activity in the experiment with Lipopolysaccharide (LPS) [1] is 36%; in the experiment on Lipopolysaccharide (LPS) [6], 93%. Besides, the result in the experiment on Lipopolysaccharide (LPS) [2], in the experiment on Lipopolysaccharide (LPS) [3], in the experiment with Lipopolysaccharide (LPS) [4], with Lipopolysaccharide (LPS) [5], in the experiment on Lipopolysaccharide (LPS) [7] and with Lipopolysaccharide (LPS) [8] was Active. The result in the experiment with Lipopolysaccharide (LPS) [9], with Lipopolysaccharide (LPS) [10], in the experiment with Lipopolysaccharide (LPS) [11] and with Lipopolysaccharide (LPS) [12] was Active. For the same compound, the minimum bactericidal concentration (MBC) in the experiment with Pseudomonas aeruginosa and against Klebsiella pneumoniae was 21 µM (≈ 49.5 µg/mL) in each case. The MIC with Pseudomonas aeruginosa and against Klebsiella pneumoniae was 21 µM (≈ 49.5 µg/mL) throughout.

For `CC(=O)NCC(=O)N[C@@H](Cc1ccc([N+](=O)[O-])cc1)C(=O)N1Cc2ccccc2C[C@H]1C(=O)N1CC2CCCCC2[C@H]1C(=O)NCC(=O)N[C@@H](CCCCN)C(=O)N1Cc2ccccc2C[C@H]1C(=O)N1CC2CCCCC2[C@H]1C(=O)NCC(=O)N[C@@H](Cc1ccc([N+](=O)[O-])cc1)C(=O)N1Cc2ccccc2C[C@H]1C(=O)N1CC2CCCCC2[C@H]1C(=O)NCC(=O)N[C@@H](CCCCN)C(=O)N1Cc2ccccc2C[C@H]1C(=O)N[C@@H](CCCCN)C(=O)N[C@@H](CCCCN)C(=O)N[C@@H](CCCCN)C(=O)N[C@@H](CCCCN)C(N)=O` (stereo partly drawn) (Ac-G[Phe(4-NO2)][Tic][Pro(3ξ,4ξ-(CH2)4)]GK[Tic][Pro(3ξ,4ξ-(CH2)4)]G[Phe(4-NO2)][Tic][Pro(3ξ,4ξ-(CH2)4)]GK[Tic]KKKK-NH2), the outcome with Lipopolysaccharide (LPS) [2], in the experiment with Lipopolysaccharide (LPS) [3], in the experiment on Lipopolysaccharide (LPS) [5], in the experiment on Lipopolysaccharide (LPS) [7], in the experiment on Lipopolysaccharide (LPS) [8] and with Lipopolysaccharide (LPS) [9] was Active. The result in the experiment with Lipopolysaccharide (LPS) [11] and with Lipopolysaccharide (LPS) [12] was Active. In addition, the minimum bactericidal concentration (MBC) was determined as 39.1 µM (≈ 99 µg/mL) against Pseudomonas aeruginosa and 19.6 µM (≈ 49.6 µg/mL) in the experiment on Klebsiella pneumoniae. The MIC against Pseudomonas aeruginosa and with Klebsiella pneumoniae was 19.6 µM (≈ 49.6 µg/mL) throughout.

As for `CC(=O)NCCC(=O)N[C@@H](Cc1ccccc1)C(=O)N1Cc2ccccc2C[C@H]1C(=O)N1CC2CCCCC2[C@H]1C(=O)NCCC(=O)N[C@@H](CCCCN)C(=O)N1Cc2ccccc2C[C@H]1C(=O)N1CC2CCCCC2[C@H]1C(=O)NCCC(=O)N[C@@H](Cc1ccccc1)C(=O)N1Cc2ccccc2C[C@H]1C(=O)N1CC2CCCCC2[C@H]1C(=O)NCCC(=O)N[C@@H](CCCCN)C(=O)N1Cc2ccccc2C[C@H]1C(=O)N[C@@H](CCCCN)C(=O)N[C@@H](CCCCN)C(=O)N[C@@H](CCCCN)C(=O)N[C@@H](CCCCN)C(N)=O` (stereo partly drawn) (Ac-[βAla]F[Tic][Pro(3ξ,4ξ-(CH2)4)][βAla]K[Tic][Pro(3ξ,4ξ-(CH2)4)][βAla]F[Tic][Pro(3ξ,4ξ-(CH2)4)][βAla]K[Tic]KKKK-NH2), the outcome with Lipopolysaccharide (LPS) [2], in the experiment on Lipopolysaccharide (LPS) [3], in the experiment with Lipopolysaccharide (LPS) [5], with Lipopolysaccharide (LPS) [7], in the experiment on Lipopolysaccharide (LPS) [8] and with Lipopolysaccharide (LPS) [9] was Active. The result in the experiment with Lipopolysaccharide (LPS) [11] and in the experiment on Lipopolysaccharide (LPS) [12] was Active. For the same compound, the minimum bactericidal concentration (MBC) in the experiment on Pseudomonas aeruginosa and against Klebsiella pneumoniae was 40 µM (≈ 99.9 µg/mL) each time. Also, the minimal inhibitory concentration (MIC) against Pseudomonas aeruginosa and in the experiment with Klebsiella pneumoniae was 40 µM (≈ 99.9 µg/mL) in each case.

Source of the values: ChEMBL document CHEMBL3351559, “Spectroscopic investigations of the binding mechanisms between antimicrobial peptides and membrane models of Pseudomonas aeruginosa and Klebsiella pneumoniae” (2014).
